In ChEMBL document CHEMBL1201861, “Genomics of Drug Sensitity in Cancer screening data, Wellcome Trust Sanger Institute”:
Values belong to the compound of their own block, whether it stands above or below them.

Experiments:
Test in all cases: cells
Format in all cases: functional, cell-based, Homo sapiens
[1] = system: BB65-RCC; details: Homo sapiens, BB65-RCC;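 also: growth inhibition of the cell line, measured with a cell viability assay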
Description: SANGER: Inhibition of human BB65-RCC cell growth in a cell viability assay.

[2] = system: GR-ST; details: Homo sapiens, GR-ST
Description: SANGER: Inhibition of human GR-ST cell growth in a cell viability assay.

[3] = system: KP-N-YS; details: Homo sapiens, KP-N-YS;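 also: cell viability assay measuring inhibition of cell line growth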
Description: SANGER: Inhibition of human KP-N-YS cell growth in a cell viability assay.

[4] = system: SF-268; details: Homo sapiens, SF-268;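 also: growth inhibition of SF-268 cells determined with a cell viability assay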
Description: SANGER: Inhibition of human SF268 cell growth in a cell viability assay.

[5] = system: NOMO-1; details: Homo sapiens, NOMO-1;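 also: growth inhibition of human NOMO-1 cells measured by a cell viability assay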
Description: SANGER: Inhibition of human NOMO-1 cell growth in a cell viability assay.

[6] = system: NCI-H1650; details: Homo sapiens, NCI-H1650;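 also: growth inhibition of human NCI-H1650 cells measured by a cell viability assay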
Description: SANGER: Inhibition of human NCI-H1650 cell growth in a cell viability assay.

[7] = system: NCI-H747; details: Homo sapiens, NCI-H747;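 also: growth inhibition of human NCI-H747 cells, read out by a cell viability assay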
Description: SANGER: Inhibition of human NCI-H747 cell growth in a cell viability assay.

[8] = system: SK-MEL-1; details: Homo sapiens, SK-MEL-1;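 also: growth inhibition of human SK-MEL-1 cells, read out by a cell viability assay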
Description: SANGER: Inhibition of human SK-MEL-1 cell growth in a cell viability assay.

[9] = system: J-RT3-T3-5; details: Homo sapiens, J-RT3-T3-5;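 also: cell viability assay measuring growth inhibition of human J-RT3-T3-5 cells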
Description: SANGER: Inhibition of human J-RT3-T3-5 cell growth in a cell viability assay.

[10] = system: MPP-89; details: Homo sapiens, MPP-89;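 also: growth inhibition of human MPP-89 cells, read out with a cell viability assay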
Description: SANGER: Inhibition of human MPP-89 cell growth in a cell viability assay.

[11] = system: OCUB-M; details: Homo sapiens, OCUB-M;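 also: growth inhibition of the cancer cell line, read out through a cell viability assay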
Description: SANGER: Inhibition of human OCUB-M cell growth in a cell viability assay.

[12] = system: GCIY; details: Homo sapiens, GCIY;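 also: growth inhibition of the human GCIY cell line, read out by a cell viability assay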
Description: SANGER: Inhibition of human GCIY cell growth in a cell viability assay.

[13] = system: CGTH-W-1; details: Homo sapiens, CGTH-W-1;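 also: growth inhibition of human CGTH-W-1 cells measured by cell viability assay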
Description: SANGER: Inhibition of human CGTH-W-1 cell growth in a cell viability assay.

[14] = system: IST-MEL1; details: Homo sapiens, IST-MEL1;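 also: growth inhibition of the cell line, read out with a cell viability assay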
Description: SANGER: Inhibition of human IST-MEL1 cell growth in a cell viability assay.

[15] = system: NCI-H720; details: Homo sapiens, NCI-H720;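 also: growth inhibition of human NCI-H720 cells determined by a cell viability assay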
Description: SANGER: Inhibition of human NCI-H720 cell growth in a cell viability assay.

[16] = system: BE-13; details: Homo sapiens, BE-13;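 also: growth inhibition of human BE-13 cells, measured with a cell viability assay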
Description: SANGER: Inhibition of human BE-13 cell growth in a cell viability assay.

[17] = system: 8-MG-BA; details: Homo sapiens, 8-MG-BA;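 also: growth inhibition of 8-MG-BA cells, read out with a cell viability assay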
Description: SANGER: Inhibition of human 8-MG-BA cell growth in a cell viability assay.

[18] = system: ES4; details: Homo sapiens, ES4;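 also: growth inhibition of human ES4 cells, read out by a cell viability assay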
Description: SANGER: Inhibition of human ES4 cell growth in a cell viability assay.

[19] = system: A101D; details: Homo sapiens, A101D;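 also: growth inhibition of the cell line, measured with a viability assay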
Description: SANGER: Inhibition of human A101D cell growth in a cell viability assay.

[20] = system: BB30-HNC; details: Homo sapiens, BB30-HNC;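 also: growth inhibition of the cultured cell line, read out by a cell viability assay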
Description: SANGER: Inhibition of human BB30-HNC cell growth in a cell viability assay.

[21] = system: D283 Med; details: Homo sapiens, D283 Med
Description: SANGER: Inhibition of human D-283MED cell growth in a cell viability assay.

[22] = system: COLO-824; details: Homo sapiens, COLO-824
Description: SANGER: Inhibition of human COLO-824 cell growth in a cell viability assay.

[23] = system: SW 962; details: Homo sapiens, SW 962;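 also: growth inhibition of human SW962 cells, read out by a cell viability assay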
Description: SANGER: Inhibition of human SW962 cell growth in a cell viability assay.

[24] = system: GOTO; details: Homo sapiens, GOTO;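 also: growth inhibition of GOTO cells, read out by a cell viability assay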
Description: SANGER: Inhibition of human GOTO cell growth in a cell viability assay.

[25] = system: L-363; details: Homo sapiens, L-363
Description: SANGER: Inhibition of human L-363 cell growth in a cell viability assay.

[26] = system: TE-11; details: Homo sapiens, TE-11;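 also: growth inhibition of human TE-11 cells, read out by a cell viability assay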
Description: SANGER: Inhibition of human TE-11 cell growth in a cell viability assay.

[27] = system: L-428; details: Homo sapiens, L-428
Description: SANGER: Inhibition of human L-428 cell growth in a cell viability assay.

[28] = system: SK-N-FI; details: Homo sapiens, SK-N-FI;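 also: cell viability assay measuring growth inhibition of human SK-N-FI cells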
Description: SANGER: Inhibition of human SK-N-FI cell growth in a cell viability assay.

[29] = system: MOLT-16; details: Homo sapiens, MOLT-16;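 also: growth inhibition of human MOLT-16 cells, read out with a cell viability assay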
Description: SANGER: Inhibition of human MOLT-16 cell growth in a cell viability assay.

[30] = system: TE-5; details: Homo sapiens, TE-5;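 also: inhibition of cell growth, read out by a cell viability assay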
Description: SANGER: Inhibition of human TE-5 cell growth in a cell viability assay.

[31] = system: HAL-01; details: Homo sapiens, HAL-01;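 also: growth inhibition of human HAL-01 cells, read out with a cell viability assay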
Description: SANGER: Inhibition of human HAL-01 cell growth in a cell viability assay.

[32] = system: NEC8; details: Homo sapiens, NEC8;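 also: growth inhibition of human NEC8 cells, read out by a cell viability assay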
Description: SANGER: Inhibition of human NEC8 cell growth in a cell viability assay.

[33] = system: HC-1; details: Homo sapiens, HC-1;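 also: growth inhibition of HC-1 cells measured by a cell viability assay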
Description: SANGER: Inhibition of human HC-1 cell growth in a cell viability assay.

[34] = system: EW-24; details: Homo sapiens, EW-24;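 also: human EW-24 cancer cell line, growth inhibition read out via a cell viability assay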
Description: SANGER: Inhibition of human EW-24 cell growth in a cell viability assay.

[35] = system: NCI-H82; details: Homo sapiens, NCI-H82;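 also: growth inhibition of NCI-H82 cells, measured with a cell viability readout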
Description: SANGER: Inhibition of human NCI-H82 cell growth in a cell viability assay.

[36] = system: IA-LM; details: Homo sapiens, IA-LM;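 also: cell viability assay measuring growth inhibition of human IA-LM cells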
Description: SANGER: Inhibition of human IA-LM cell growth in a cell viability assay.

[37] = system: MFH-ino; details: Homo sapiens, MFH-ino;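 also: growth inhibition of human MFH-ino cells, read out by a cell viability assay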
Description: SANGER: Inhibition of human MFH-ino cell growth in a cell viability assay.

[38] = system: NCI-H1299; details: Homo sapiens, NCI-H1299;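 also: growth inhibition of human NCI-H1299 cells, read out by a cell viability assay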
Description: SANGER: Inhibition of human NCI-H1299 cell growth in a cell viability assay.

[39] = system: A704; details: Homo sapiens, A704;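 also: growth inhibition of human A704 cells, read out with a cell viability assay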
Description: SANGER: Inhibition of human A704 cell growth in a cell viability assay.

[40] = system: NCI-H1395; details: Homo sapiens, NCI-H1395;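 also: cell viability assay read-out quantifying reduced proliferation of human NCI-H1395 cells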
Description: SANGER: Inhibition of human NCI-H1395 cell growth in a cell viability assay.

[41] = system: NB6; details: Homo sapiens, NB6;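 also: growth inhibition of NB6 cells, read out by a cell viability assay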
Description: SANGER: Inhibition of human NB6 cell growth in a cell viability assay.

[42] = system: NB12; details: Homo sapiens, NB12;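 also: growth inhibition of human NB12 cells, read out by a cell viability assay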
Description: SANGER: Inhibition of human NB12 cell growth in a cell viability assay.

[43] = system: OVCAR-4; details: Homo sapiens, OVCAR-4;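 also: growth inhibition of human OVCAR-4 cells, measured with a cell viability assay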
Description: SANGER: Inhibition of human OVCAR-4 cell growth in a cell viability assay.

[44] = system: A3-KAW; details: Homo sapiens, A3-KAW;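 also: growth inhibition of human A3-KAW cells, read out with a cell viability assay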
Description: SANGER: Inhibition of human A3-KAW cell growth in a cell viability assay.

[45] = system: LS-1034; details: Homo sapiens, LS-1034
Description: SANGER: Inhibition of human LS-1034 cell growth in a cell viability assay.

[46] = system: MSTO-211H; details: Homo sapiens, MSTO-211H
Description: SANGER: Inhibition of human MSTO-211H cell growth in a cell viability assay.

[47] = system: ES6; details: Homo sapiens, ES6;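 also: growth inhibition of human ES6 cells, read out with a cell viability assay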
Description: SANGER: Inhibition of human ES6 cell growth in a cell viability assay.

SMILES: CO[C@H]1C[C@@H]2CC[C@@H](C)[C@@](O)(O2)C(=O)C(=O)N2CCCC[C@H]2C(=O)O[C@H]([C@H](C)C[C@@H]2CC[C@@H](OC(=O)C(C)(CO)CO)[C@H](OC)C2)CC(=O)[C@H](C)/C=C(\C)[C@@H](O)[C@@H](OC)C(=O)[C@H](C)C[C@H](C)/C=C/C=C/C=C/1C [TEMSIROLIMUS]
IC50 [1]: 0.007 µM
IC50 [2]: 0.0333 µM
IC50 [3]: > 0.2 µM
IC50 [4]: > 0.2 µM
IC50 [5]: 0.168 µM
IC50 [6]: > 0.2 µM
IC50 [7]: > 0.2 µM
IC50 [8]: > 0.2 µM
IC50 [9]: 0.0124 µM
IC50 [10]: > 0.2 µM
IC50 [11]: > 0.2 µM
IC50 [12]: > 0.2 µM
IC50 [13]: 0.00575 µM
IC50 [14]: 0.123 µM
IC50 [15]: 0.00962 µM
IC50 [16]: 0.00491 µM
IC50 [17]: > 0.2 µM
IC50 [18]: 0.0378 µM
IC50 [19]: 0.0487 µM
IC50 [20]: > 0.2 µM
IC50 [21]: > 0.2 µM
IC50 [22]: > 0.2 µM
IC50 [23]: 0.0156 µM
IC50 [24]: > 0.2 µM
IC50 [25]: 0.000242 µM
IC50 [26]: > 0.2 µM
IC50 [27]: > 0.2 µM
IC50 [28]: > 0.2 µM
IC50 [29]: 0.0128 µM
IC50 [30]: > 0.2 µM
IC50 [31]: > 0.2 µM
IC50 [32]: > 0.2 µM
IC50 [33]: 0.101 µM
IC50 [34]: > 0.2 µM
IC50 [35]: 0.0288 µM
IC50 [36]: > 0.2 µM
IC50 [37]: > 0.2 µM
IC50 [38]: 0.186 µM
IC50 [39]: > 0.2 µM
IC50 [40]: > 0.2 µM
IC50 [41]: > 0.2 µM
IC50 [42]: > 0.2 µM
IC50 [43]: > 0.2 µM
IC50 [44]: 0.0104 µM
IC50 [45]: > 0.2 µM
IC50 [46]: 0.0601 µM
IC50 [47]: > 0.2 µM

IC50 [1]: 0.135 µM
IC50 [4]: 0.272 µM
IC50 [6]: 4.92 µM
IC50 [7]: 0.13 µM
IC50 [10]: 1.27 µM
IC50 [11]: 0.243 µM
IC50 [12]: 0.0208 µM
IC50 [13]: 0.186 µM
IC50 [14]: 0.228 µM
IC50 [17]: 0.154 µM
IC50 [18]: 0.516 µM
IC50 [19]: 0.0875 µM
IC50 [20]: 0.162 µM
IC50 [21]: 0.284 µM
IC50 [22]: 0.691 µM
IC50 [23]: 0.378 µM
IC50 [24]: 0.171 µM
IC50 [26]: 0.151 µM
IC50 [28]: 0.328 µM
IC50 [30]: 0.884 µM
IC50 [32]: 0.145 µM
IC50 [36]: 1.56 µM
IC50 [38]: 0.28 µM
IC50 [40]: 0.612 µM
IC50 [41]: 2.49 µM
IC50 [42]: 0.136 µM
IC50 [43]: 0.61 µM
IC50 [45]: 1.36 µM
IC50 [46]: 0.789 µM
IC50 [47]: 0.373 µM
SMILES: CC(C)c1ccccc1Cc1cc(C(=O)Nc2ccc(S(=O)(=O)c3ccccc3C(C)(C)C)cc2)c(O)c(O)c1O

SMILES: CN(C)C(=N)NC(=N)N [METFORMIN]
IC50 [2]: > 20000 µM
IC50 [4]: > 20000 µM
IC50 [5]: > 20000 µM
IC50 [7]: > 20000 µM
IC50 [8]: 11800 µM
IC50 [9]: > 20000 µM
IC50 [10]: > 20000 µM
IC50 [11]: 11400 µM
IC50 [12]: > 20000 µM
IC50 [13]: > 20000 µM
IC50 [14]: > 20000 µM
IC50 [15]: 534 µM
IC50 [16]: 18000 µM
IC50 [17]: > 20000 µM
IC50 [18]: > 20000 µM
IC50 [19]: > 20000 µM
IC50 [20]: 10800 µM
IC50 [21]: > 20000 µM
IC50 [22]: > 20000 µM
IC50 [24]: > 20000 µM
IC50 [25]: 6740 µM
IC50 [26]: > 20000 µM
IC50 [27]: 7760 µM
IC50 [28]: > 20000 µM
IC50 [29]: > 20000 µM
IC50 [30]: > 20000 µM
IC50 [31]: > 20000 µM
IC50 [32]: 16000 µM
IC50 [33]: 4200 µM
IC50 [34]: 9450 µM
IC50 [36]: > 20000 µM
IC50 [38]: 10100 µM
IC50 [40]: > 20000 µM
IC50 [43]: 4430 µM
IC50 [44]: > 20000 µM
IC50 [45]: > 20000 µM
IC50 [46]: > 20000 µM
IC50 [47]: > 20000 µM
